The OligoGym collection
Oligonucleotides are given in HELM: sugar(base)linkage, 5' to 3'; d 2'-deoxyribose, r ribose, m 2'-O-methylribose, p phosphate. ss, as = sense and antisense strand
Further: test concentration or dose not given here.

These substances were tested against UBE2N (assay: reporter assay of Huesken 2005). Details: siRNA.
In the case of “RNA1{r(A)p.r(C)p.r(G)p.r(U)p.r(U)p.r(U)p.r(C)p.r(A)p.r(U)p.r(G)p.r(A)p.r(C)p.r(C)p.r(A)p.r(A)p.r(A)p.r(A)p.r(U)p.r(U)p.d(T)p.d(T)}|RNA2{r(A)p.r(A)p.r(U)p.r(U)p.r(U)p.r(U)p.r(G)p.r(G)p.r(U)p.r(C)p.r(A)p.r(U)p.r(G)p.r(A)p.r(A)p.r(A)p.r(C)p.r(G)p.r(U)p.d(A)p.d(C)}$$$RNA1{StrandType:ss}|RNA2{StrandType:as}$”, the normalised inhibition (eCFP-eYFP dual reporter) is reported as 92.1%.
In the case of “RNA1{r(A)p.r(C)p.r(U)p.r(U)p.r(G)p.r(A)p.r(A)p.r(C)p.r(U)p.r(A)p.r(U)p.r(U)p.r(C)p.r(C)p.r(U)p.r(U)p.r(C)p.r(C)p.r(A)p.d(T)p.d(T)}|RNA2{r(U)p.r(G)p.r(G)p.r(A)p.r(A)p.r(G)p.r(G)p.r(A)p.r(A)p.r(U)p.r(A)p.r(G)p.r(U)p.r(U)p.r(C)p.r(A)p.r(A)p.r(G)p.r(U)p.d(T)p.d(T)}$$$RNA1{StrandType:ss}|RNA2{StrandType:as}$”, the normalised inhibition (eCFP-eYFP dual reporter) is reported as 96.1%.
Work on “RNA1{r(A)p.r(G)p.r(A)p.r(A)p.r(C)p.r(C)p.r(A)p.r(G)p.r(U)p.r(U)p.r(C)p.r(C)p.r(U)p.r(G)p.r(G)p.r(C)p.r(A)p.r(U)p.r(C)p.d(T)p.d(T)}|RNA2{r(G)p.r(A)p.r(U)p.r(G)p.r(C)p.r(C)p.r(A)p.r(G)p.r(G)p.r(A)p.r(A)p.r(C)p.r(U)p.r(G)p.r(G)p.r(U)p.r(U)p.r(C)p.r(U)p.d(G)p.d(C)}$$$RNA1{StrandType:ss}|RNA2{StrandType:as}$” yielded a normalised inhibition (eCFP-eYFP dual reporter) of 60.7%.
For “RNA1{r(A)p.r(G)p.r(A)p.r(A)p.r(U)p.r(A)p.r(C)p.r(C)p.r(C)p.r(A)p.r(A)p.r(U)p.r(G)p.r(G)p.r(C)p.r(A)p.r(G)p.r(C)p.r(C)p.d(T)p.d(T)}|RNA2{r(G)p.r(G)p.r(C)p.r(U)p.r(G)p.r(C)p.r(C)p.r(A)p.r(U)p.r(U)p.r(G)p.r(G)p.r(G)p.r(U)p.r(A)p.r(U)p.r(U)p.r(C)p.r(U)p.d(T)p.d(C)}$$$RNA1{StrandType:ss}|RNA2{StrandType:as}$”, the normalised inhibition (eCFP-eYFP dual reporter) was 44.7%.
Work on “RNA1{r(A)p.r(G)p.r(A)p.r(U)p.r(A)p.r(U)p.r(U)p.r(U)p.r(U)p.r(G)p.r(A)p.r(A)p.r(A)p.r(G)p.r(A)p.r(U)p.r(A)p.r(A)p.r(G)p.d(T)p.d(T)}|RNA2{r(C)p.r(U)p.r(U)p.r(A)p.r(U)p.r(C)p.r(U)p.r(U)p.r(U)p.r(C)p.r(A)p.r(A)p.r(A)p.r(A)p.r(U)p.r(A)p.r(U)p.r(C)p.r(U)p.d(A)p.d(G)}$$$RNA1{StrandType:ss}|RNA2{StrandType:as}$” yielded a normalised inhibition (eCFP-eYFP dual reporter) of 57.1%.
“RNA1{r(A)p.r(G)p.r(C)p.r(C)p.r(C)p.r(A)p.r(A)p.r(G)p.r(C)p.r(C)p.r(A)p.r(U)p.r(A)p.r(G)p.r(A)p.r(A)p.r(A)p.r(C)p.r(A)p.d(T)p.d(T)}|RNA2{r(U)p.r(G)p.r(U)p.r(U)p.r(U)p.r(C)p.r(U)p.r(A)p.r(U)p.r(G)p.r(G)p.r(C)p.r(U)p.r(U)p.r(G)p.r(G)p.r(G)p.r(C)p.r(U)p.d(T)p.d(C)}$$$RNA1{StrandType:ss}|RNA2{StrandType:as}$” showed a normalised inhibition (eCFP-eYFP dual reporter) of 91.7%.
In the case of “RNA1{r(A)p.r(G)p.r(C)p.r(G)p.r(G)p.r(A)p.r(G)p.r(C)p.r(A)p.r(G)p.r(U)p.r(G)p.r(G)p.r(A)p.r(A)p.r(G)p.r(A)p.r(C)p.r(C)p.d(T)p.d(T)}|RNA2{r(G)p.r(G)p.r(U)p.r(C)p.r(U)p.r(U)p.r(C)p.r(C)p.r(A)p.r(C)p.r(U)p.r(G)p.r(C)p.r(U)p.r(C)p.r(C)p.r(G)p.r(C)p.r(U)p.d(A)p.d(C)}$$$RNA1{StrandType:ss}|RNA2{StrandType:as}$”, the normalised inhibition (eCFP-eYFP dual reporter) is reported as 43.9%.
With “RNA1{r(A)p.r(U)p.r(A)p.r(G)p.r(A)p.r(A)p.r(A)p.r(C)p.r(A)p.r(G)p.r(C)p.r(U)p.r(A)p.r(G)p.r(A)p.r(G)p.r(C)p.r(A)p.r(U)p.d(T)p.d(T)}|RNA2{r(A)p.r(U)p.r(G)p.r(C)p.r(U)p.r(C)p.r(U)p.r(A)p.r(G)p.r(C)p.r(U)p.r(G)p.r(U)p.r(U)p.r(U)p.r(C)p.r(U)p.r(A)p.r(U)p.d(G)p.d(G)}$$$RNA1{StrandType:ss}|RNA2{StrandType:as}$” the normalised inhibition (eCFP-eYFP dual reporter) was 91.8%.
